{"source": "patent US7632816B2", "about": "“Treatment of Alzheimer amyloid deposition” (New York University, priority 2003, dated 2009)", "key": {"[1]": {"biological_target": "T1, apoE4 (Homo sapiens, UniProt P02649, C130R)", "T1 construct": "made in house; host or cells: primary forebrain astrocytes of GFAP-human apoE4 transgenic mice", "T1 sequence (P02649 19-317 C130R)": "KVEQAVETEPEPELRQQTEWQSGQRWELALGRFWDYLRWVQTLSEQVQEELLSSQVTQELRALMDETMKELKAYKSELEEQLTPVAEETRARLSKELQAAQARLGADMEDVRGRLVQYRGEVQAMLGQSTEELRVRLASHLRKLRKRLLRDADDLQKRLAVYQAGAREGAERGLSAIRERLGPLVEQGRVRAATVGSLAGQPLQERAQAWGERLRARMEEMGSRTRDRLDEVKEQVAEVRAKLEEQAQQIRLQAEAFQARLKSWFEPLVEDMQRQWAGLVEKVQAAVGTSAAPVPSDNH", "assay": "Competitive inhibition ELISA: apoE4 binding to immobilized Aβ1-40", "method": "Lipidated apoE4 100 nM was preincubated with an increasing concentration of Aβ12-28P (0-400 nM) in 10 mM Tris buffer pH 7.4 for three hours at 37° C., and then added to the plate (100 μL/well). […] The color reaction was developed with a 3,3,5,5-tetramethybenzidine substrate (Sigma, St. Louis, Mo.), stopped with 2M sulfuric acid, and optical density (“OD”) was read at 450 nm on a 7520 Microplate Reader (Cambridge Technology, Watertown, Mass.). Non-specific binding was determined using bovine serum albumin and/or omitting the apoE4 in the assay. OD values were converted to percentages with the binding of apoE4 in the absence of inhibitor being considered as 100%. The mean±standard deviation from three independent duplicate experiments was plotted in FIG. 3 and analyzed by a one site competition nonlinear regression fit algorithm using GraphPad Prism v4.0 (GraphPad Software, San Diego, Calif.)."}, "[2]": {"assay": "In vivo toxicity test in wild type mice", "conditions": "1 mg i.p. three times per week for four weeks", "method": "Initial testing of Aβ12-28P toxicity in vivo was performed on five wild type C57BL6 mice which received intraperitoneal (“i.p.”) injections of 1 mg of Aβ12-28P diluted in 0.5 mL of sterile PBS three times per week for four weeks. […] Signs of toxicity included change in body weight, physical appearance, measurable clinical signs, unprovoked behavior and response to external stimuli were not noticed. After one month, the animals were sacrificed and samples were taken from the brain, liver, gut, spleen, kidney and heart, for hematoxylin and eosin staining. […] The first administration of Aβ12-28P was begun at four months of age, at which time the APP^K670N/M671L/PS1^M146L mice already have significant numbers of Aβ lesions (Wengenack et al., “Quantitative Histological Analysis of Amyloid Deposition in Alzheimer's Double Transgenic Mouse Brain,” Neurosci. 101:939-944 (2000); McGowan et al., “Amyloid Phenotype Characterization of Transgenic Mice Overexpressing Both Mutant Amyloid Precursor Protein and Mutant Presenilin 1 Transgenes,” Neurobiol. Dis. 6:231-244 (1999), which are hereby incorporated by reference in their entirety). The treatment was continued for four weeks (1 mg i.p. three times per week). Control age-matched APP^K670N/M671L/PS1^M146L mice received injections with vehicle only. There were six Aβ12-28P treated and six vehicle treated APP^K670N/M671L/PS1^M146L mice in this study."}, "[3]": {"biological_target": "T2, apoE3 (Homo sapiens, UniProt P02649)", "T2 construct": "made in house; host or cells: primary forebrain astrocytes of GFAP-human apoE3 transgenic mice", "T2 sequence (P02649 19-317)": "as the sequence (P02649 19-317 C130R) above, with R112C counted along it", "assay": "Thioflavin-T aggregation inhibition: apoE3-promoted Aβ1-42 fibril formation", "format": "biochemical", "conditions": "for relative reduction in fluorescence: apoE3 preincubated with Aβ12-28P, then added to Aβ1-42", "method": "Recombinant apoE3 and apoE4 were purchased from Calbiochem Corp. (San Diego, Calif.). Lipidated apoE3 and apoE4 complexes were prepared from primary cultures of astrocytes derived from Tg mice in which human apoE3 or apoE4 were expressed under the control of the astrocyte-specific glial fibrillary acidic protein (GFAP) promoter as described previously (Fagan et al., “Unique Lipoproteins Secreted by Primary Astrocytes from Wild Type, ApoE (−/−), and Human ApoE Transgenic Mice,” J. Biol. Chem. 274:30001-30007 (1999); DeMattos et al., “Purification and Characterization of Astrocyte-secreted Apolipoprotein E and J-Containing Lipoproteins from Wild-type and Human ApoE Transgenic Mice,” Neurochemistry International 39:415-425 (2001); Sun et al., “Glial Fibrillary Acidic Protein-apolipoprotein E (apoE) Transgenic Mice: Astrocyte-specific Expression and Differing Biological Effects of Astrocyte-secreted ApoE3 and ApoE4 Lipoproteins,” J. Neurosci. 18:3261-3272 (1998); which are hereby incorporated by reference in their entirety). […] The purity of the apoE preparation was assessed by SDS-PAGE.\nAβ1-40 and Aβ1-42 were studied for comparison. […] Samples containing 15 μg of incubated peptides were taken at indicated intervals and fluorescence was measured as previously described in a Perkin-Elmer LS-50B fluorescence spectrophotometer (Perkin Elmer Instruments, Shelton, Conn.) (Wisniewski et al., “Acceleration of Alzheimer's Fibril Formation by Apolipoprotein E in vitro,” Am. J. Pathol. 145:1030-1035 (1994); Golabek et al., “The Interaction Between Apolipoprotein E and Alzheimer's Amyloid β-peptide is Dependent on β-peptide Conformation,” J. Biol. Chem. 271:10602-10606 (1996); which are hereby incorporated by reference in their entirety). […] Differences in amount of fibrils formed by the different peptides were evaluated by means of a repeated measures ANOVA, followed by a Tukey HSD post-hoc test using Statistica (version 6.1) (StatSoft Inc., Tulsa, Okla.). […]"}}, "note": "“Also recorded” adds a separate entry of the source. Square brackets hold non-standard residues; d marks the D form. Peptide text beside a SMILES is read from it.", "data": [{"smiles": "CC(=O)N[C@@H](C(=O)N[C@H](Cc1c[nH]cn1)C(=O)N[C@H](Cc1c[nH]cn1)C(=O)N[C@H](CCC(N)=O)C(=O)N[C@H](CCCCN)C(=O)N[C@H](CC(C)C)C(=O)N1CCC[C@@H]1C(=O)N[C@H](Cc1ccccc1)C(=O)N[C@H](Cc1ccccc1)C(=O)N[C@H](C)C(=O)N[C@H](CCC(=O)O)C(=O)N[C@H](CC(=O)O)C(=O)N[C@@H](C(=O)NCC(=O)N[C@H](CO)C(=O)N[C@H](CC(N)=O)C(=O)N[C@H](CCCCN)C(N)=O)C(C)C)C(C)C", "note": "[Aβ12-28P] (Ac-[dV][dH][dH][dQ][dK][dL][dP][dF][dF][dA][dE][dD][dV]G[dS][dN][dK]-NH2)", "values": [{"measurement": "IC50", "setting": "[1]; 100 nM lipidated apoE4 preincubated with 0-400 nM peptide, one-site competition fit", "result": 0.0367, "unit": "µM"}, {"measurement": "Ki", "setting": "[1]; read-out: inhibition constant (KI)", "result": 0.0114, "unit": "µM"}, {"measurement": "survival and condition", "setting": "[2]; observed two more weeks, wild type C57BL6 mice", "result": "all remained alive and well"}, {"measurement": "hematoxylin and eosin histology of brain, heart, liver, gut, spleen, kidneys", "setting": "[2]; wild type mice", "result": "did not reveal any pathology"}, {"measurement": "signs of toxicity (body weight, physical appearance, clinical signs, unprovoked behavior, response to external stimuli)", "setting": "[2]; wild type mice", "result": "No changes were noted; also recorded: not noticed"}, {"measurement": "relative reduction in fluorescence", "setting": "[3]; after 24 h of incubation", "result": 14.5, "unit": "%"}, {"measurement": "relative reduction in fluorescence", "setting": "[3]; day six", "result": 48.3, "unit": "%"}, {"measurement": "chaperoning effect of apoE3 on Aβ1-42 fibril formation", "setting": "[3]; apoE3 preincubated with equimolar Aβ12-28P, p<0.05", "result": "significantly reduced"}]}]}
